Experimental data as given in US20190046662A1, “Compositions and Methods for Treating Neuropathic Pain” (Rutgers, The State University of New Jersey, priority 2016, published 2019).

Tests used:
Type in all cases: in vivo, rat
hSyn-hM4D = molecular target: T1, hSyn-hM4D (Homo sapiens, UniProt P08173, A203G/Y113C); test: Pin-prick response score, synapsin-DREADD (hSyn-hM4D) in right trigeminal ganglion, non-CCI animals; conditions: n=7 per group, CNO i.p. vs vehicle
T1 construct: expressed in transfected cells; host or cells: rat trigeminal ganglion neurons in vivo, viral vector with synapsin promoter
T1 sequence (P08173 1-479 Y113C/A203G): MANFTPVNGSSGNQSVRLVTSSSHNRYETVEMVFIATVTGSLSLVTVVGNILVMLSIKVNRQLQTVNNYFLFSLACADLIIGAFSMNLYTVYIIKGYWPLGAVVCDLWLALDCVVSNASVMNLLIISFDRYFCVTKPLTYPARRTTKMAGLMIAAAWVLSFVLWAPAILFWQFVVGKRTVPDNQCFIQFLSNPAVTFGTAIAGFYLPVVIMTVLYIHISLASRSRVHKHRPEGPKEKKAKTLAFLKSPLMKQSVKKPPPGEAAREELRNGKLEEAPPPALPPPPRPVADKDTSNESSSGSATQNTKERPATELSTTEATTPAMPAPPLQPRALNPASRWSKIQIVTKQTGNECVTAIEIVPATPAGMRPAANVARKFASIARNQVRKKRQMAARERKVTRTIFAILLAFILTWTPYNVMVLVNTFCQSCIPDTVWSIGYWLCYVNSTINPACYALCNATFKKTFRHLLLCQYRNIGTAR
Excerpt: The effects of synapsin-DREADD activation with CNO on pin-prick response score were also studied (FIG. 4). The pin-prick assay is generally considered a nociceptive threshold test. All animals (males, n=7 per group; females, n=7 per group) had synapsin-DREADD (hSyn-hM4D) injected into the right trigeminal ganglion. Average pin-prick response scores (±SEM) are plotted following intraperitoneal (i.p.) administration of CNO or vehicle.

hTac1-hM4D [1] = molecular target: T2, hTac1-hM4D (Homo sapiens, UniProt P08173, A203G/Y113C); test: Pin-prick response score, Tac1-DREADD (hTac1-hM4D) in trigeminal ganglion, non-CCI animals; conditions: females, n=7 per group, CNO i.p. vs vehicle
T2 construct: expressed in transfected cells; host or cells: rat trigeminal ganglion neurons in vivo, viral vector with Tac1 promoter
T2 sequence (P08173 1-479 Y113C/A203G): T1 sequence (P08173 1-479 Y113C/A203G)
Excerpt: The effects of Tac1-DREADD activation with CNO on pin-prick response score were also studied (FIG. 8). All animals (female, n=7 per group) had Tachykinin 1-DREADD (hTac1-hM4D) injected into the trigeminal ganglion unilaterally. Average pin-prick response scores (±SEM) were plotted following intraperitoneal (i.p.) administration of CNO or vehicle.

hTac1-hM4D [2] = molecular target: T2, hTac1-hM4D; test: Pain-like behavior after IoN-CCI, Tac1-DREADD (hTac1-hM4D); conditions: IoN-CCI males
Excerpt: For the infraorbital nerve chronic constriction injury (ION-CCI), ˜0.5 cm of the infraorbital nerve will be freed and two chromic gut ligatures will be loosely tied around it (2 mm apart) prior to closure of the incision (all performed under ketamine/xylazine anesthesia). As a control, other rats will undergo sham surgery where the infraorbital nerve is exposed but left untouched. This model results in persistent pain beginning at about 2 weeks postoperatively and lasting at least 3 weeks (Benoliel et al. (2001) Neurosci. Lett., 297:151-4; Benoliel et al. (2002) Pain 97:203-12), allowing for the assessment of the effect of vehicle vs CNO/DREADD-mediated inhibition of TG neurons on this behavior at multiple time points. Fos expression and cAMP levels may also be measured in the TG to correlate these molecular endpoints to behavioral effects of DREADD activation. The rats will also undergo repeated stimulation with a 2-g von Frey hair applied to the hairy skin of the vibrissae on the operated side to induce Fos (Vos et al. (1995) J. Comp. Neurol., 357:362-75). Activation of hM4Di receptors will reduce Fos in the TG following von Frey stimulation.
The effects of Tac1-DREADD activation with CNO on pain-like behavior following IoN-CCI were studied (FIG. 10). The mean von Frey detection thresholds (±SEM) (left) and the mean response scores (±SEM) (right) to the pin-prick stimulation applied to the vibrissal pads were plotted. All animals (males, n=7 per group) were exposed to the infraorbital nerve chronic constriction injury (IoN-CCI) unilaterally. Following IoN-CCI, all animals had tachykinin 1-DREADD (hTac1-hM4D) injected into the ipsilateral trigeminal ganglion. At post-operative day 26 (D26) CNO or vehicle was delivered intraperitoneally 30 minutes prior to behavioral testing.

[3] = Tac1-DREADD study (sentence prints hSyn-hM4D), CNO i.p. at D26

C[N+]1([O-])CCN(C2=Nc3cc(Cl)ccc3Nc3ccccc32)CC1 [CNO, clozapine N-oxide]
pin-prick response score, contralateral side (hSyn-hM4D; females, F=0.1, P=0.7): no significant effect | pin-prick response score, ipsilateral side (hSyn-hM4D; females, F=0.1, P=0.8): no significant effect | pin-prick response score, contralateral (left) vibrissal pad (hSyn-hM4D; males, F=1.3, P=0.3): No significant effect | pin-prick response score, ipsilateral (right) vibrissal pad (hSyn-hM4D; males, F=9.8, P=0.01): significantly reduced | pin-prick response score, contralateral vibrissal pad (hTac1-hM4D [1]; F=0.01, P=0.9): no significant effect | pin-prick response score, ipsilateral vibrissal pad (hTac1-hM4D [1]; F=0.1, P=0.8): no significant effect | von Frey detection threshold, ipsilateral side, compared to vehicle treated animals (hTac1-hM4D [2]; n=7 per group, hTac1-hM4D, CNO i.p. at D26, 30 min prior to testing, F=6.3, P=0.03): significantly increased | pin-prick response score, ipsilateral vibrissal pad, compared to vehicle treated animals (hTac1-hM4D [2]; n=7 per group, hTac1-hM4D, CNO i.p. at D26, F=8.6, P=0.01): significantly decreased | pin-prick response score, contralateral side (hTac1-hM4D [2]; [3]): No significant effects | von Frey detection threshold, contralateral side (hTac1-hM4D [2]; [3]): No significant effects | pin-prick response score, ipsilateral side, compared to post-operative days 21 and 27 (hTac1-hM4D [2]; hTac1-hM4D, CNO i.p. at D26, D21 F=18.9, P=0.0003, D27 F=16.9, P=0.0006): significantly decreased | von Frey detection threshold, ipsilateral side, compared to post-operative days 21 and 27 (hTac1-hM4D [2]; hTac1-hM4D, CNO i.p. at D26, D21 F=31.4, P<0.0001, D27 F=9.8, P=0.006): significantly increased
